Results: patent publication US11926619B2, “Certain pladienolide compounds and methods of use” (EISAI R&D MANAGEMENT CO., LTD., priority 2018, dated 2024)
Read-outs that look alike come from different tables or passages of the source.

Key:
Format in all cases: cell-based
[1] = system: WiDr cells (colon cancer cells; wildtype SF3B1); test: Cell viability assay (CellTiter-Glo, 72 hr), WiDr cells; conditions: Homo sapiens
Description: (§1) Cells (WiDr and Panc05.04 obtained from ATCC) were seeded in 96-well plates, with 2000 cells/100 μL/well, and incubated overnight. Spent media was removed, and fresh media containing 9 different concentrations of compound (100 μL/well) were added, with DMSO concentration from compound stock solution adjusted to be 0.1%. Each compound treatment was done in duplicate or triplicate at each concentration.
(§2) Another plate with cells seeded was dedicated as a time zero (Tz) plate, to which was added 0.1% DMSO in media (100 μL/well) followed by CellTiter-Glo® reagent (Promega Corporation, Madison, Wisconsin) (50 μL/well) for ATP measurement as a surrogate of cell viability. Average value from measurement of multiple wells of this plate is used as Tz. Compound-treated plates were incubated for 72 hr at 37° C. Then, CellTiter-Glo® reagent (50 μL/well) was added and ATP was measured. Average value from measurement of the duplicate or triplicate compound-treated wells is used as Ti, and seeded plates with medium having 0.1% DMSO without compound is used as control growth (C).
(§3) Percentage growth inhibition/Percentage viability was calculated as:
(§4) [(Ti−Tz)/(C−Tz)]×100 for concentrations for which Ti>/=Tz
(§5) [(Ti−Tz)/Tz]×100 for concentrations for which Ti<Tz.
(§6) *time zero (Tz), control growth (C), and test growth in the presence of compound (Ti) Percentage growth inhibition/Percentage viability are plotted versus compound concentration to determine Emax.
Emax refers to the maximum achievable response to a compound in a tested dose range, with a negative value indicating cellular lethality. A larger negative Emax value indicates greater cellular lethality for a particular compound. […]

[2] = system: WiDr-R cells (colon cancer cells; chemically-induced SF3B1 R1074H mutant); test: Cell viability assay (CellTiter-Glo, 72 hr), resistant WiDr-R cells (counter-screen)
Description: as §1, §2, §3, §4, §5, §6
(§7) Emax refers to the maximum achievable response to a compound in a tested dose range, with a negative value indicating cellular lethality. A larger negative Emax value indicates greater cellular lethality for a particular compound.
The counter-screening of compounds in this viability assay with a “resistant” WiDr-R cell line may indicate whether these compounds have off-target effect(s).

[3] = system: Panc 05.04 cells (pancreatic cancer cells; Q699H and K700E mutations in SF3B1); test: Cell viability assay (CellTiter-Glo, 72 hr), Panc 05.04 cells; conditions: Panc 05.04 cells (mutant SF3B1); for Emax: maximum achievable response in tested dose range, negative value = cellular lethality, read-out: Panc 05.04 (mt SF3B1 cells) Emax (%); for GI50: read-out: Panc 05.04 (mt SF3B1 cells), GI50
Description: as §1, §2, §3, §4, §5, §6, §7

[4] = WiDr cells (wildtype SF3B1), read-out: WiDr GI50
[5] = WiDr-R cells (SF3B1 R1074H mutation, resistant), read-out: WiDr-R GI50

| SMILES | GI50 [1, 4] | GI50 [2, 5] | Emax [3] | GI50 [3] | GI50 ([1]; WiDr, read-out: WiDr GI50 (nM)) | GI50 ([2]; read-out: WiDr-R GI50 (nM)) |
| --- | --- | --- | --- | --- | --- | --- |
| C/C(=C\C=C\[C@@H](C)c1ccccn1)[C@H]1OC(=O)C[C@H](O)CC[C@@](C)(O)[C@@H](OC(=O)N(C)C2CCN(C)CC2)/C=C/[C@@H]1C | 16.2 nM | > 1000 nM | -60.2% | 25.1 nM |  |  |
| C/C(=C\C=C\[C@@H](C)COC(=O)N1CC[C@@H](Oc2nnnn2-c2ccccc2)C1)[C@H]1OC(=O)CCCC[C@@](C)(O)[C@@H](OC(=O)N2CCN(C)CC2)/C=C/[C@@H]1C | 31.6 nM | > 1000 nM | -94.9% | 37.3 nM |  |  |
| C/C(=C\C=C\[C@@H](C)COC(=O)N1CCC[C@H]1CF)[C@H]1OC(=O)C[C@H](O)CC[C@H](C)[C@@H](OC(=O)N2CCN(C)CC2)/C=C/[C@@H]1C | 2.2 nM | > 1000 nM | -79.1% | 0.339 nM |  |  |
| C/C(=C\C=C\[C@@H](C)COC(=O)N1CCC[C@H]1C(N)=O)[C@H]1OC(=O)C[C@H](O)CC[C@@](C)(O)[C@@H](OC(=O)N2CCN(C3CCCCCC3)CC2)/C=C/[C@@H]1C | 32.8 nM | > 1000 nM | -92.9% | 40.2 nM |  |  |
| C/C(=C\C=C\Cc1ccccn1)[C@H]1OC(=O)C[C@H](O)CC[C@@](C)(O)[C@@H](OC(=O)N2CCN(C3CCCCCC3)CC2)/C=C/[C@@H]1C | 148 nM | > 1000 nM | 63.5% | > 4000 nM |  |  |
| C/C(=C\C=C\[C@@H](C)COC(=O)n1ccc2ccccc21)[C@H]1OC(=O)C[C@H](O)CC[C@@](C)(O)[C@@H](OC(=O)N2CCN(C)CC2)/C=C/[C@@H]1C | 36.6 nM | > 1000 nM | -92.8% | 30.5 nM |  |  |
| CCCN(C)C(=O)OC[C@H](C)/C=C/C=C(\C)[C@H]1OC(=O)C[C@H](O)CC[C@@](C)(O)[C@@H](OC(=O)N2CCN(C3CCCCCC3)CC2)/C=C/[C@@H]1C |  |  | -92.4% | 279 nM | 43.4 nM | > 1000 nM |
| CC(=O)O[C@H]1/C=C/[C@H](C)[C@@H](/C(C)=C/C=C/[C@@H](C)c2ccccn2)OC(=O)CCCCC1 | > 10000 nM | > 10000 nM |  | > 10000 nM |  |  |
| C/C(=C\C=C\[C@@H](C)COC(=O)N1CCCC1)[C@H]1OC(=O)CCCCC[C@@H](OC(=O)N2CCN(C3CCCCCC3)CC2)/C=C/[C@@H]1C | 74.6 nM | 929 nM | -93.3% | 170 nM |  |  |
| C/C(=C\C=C\[C@@H](C)c1ccccn1)[C@H]1OC(=O)CCCC[C@@](C)(O)[C@@H](OC(=O)N2CCN(C)CC2)/C=C/[C@@H]1C | 31.6 nM | > 1000 nM | -75.7% | 33.9 nM |  |  |
| C/C(=C\C=C\[C@@H](C)COC(=O)N1CCC[C@H]1CF)[C@H]1OC(=O)C[C@H](O)CC[C@@](C)(O)[C@@H](OC(=O)N2CCN(C)CC2)/C=C/[C@@H]1C | 1.7 nM | > 1000 nM | -82.1% | 2.25 nM |  |  |
| C/C(=C\C=C\[C@@H](C)COC(=O)N1CC[C@H](F)C1)[C@H]1OC(=O)C[C@H](O)CC[C@@](C)(O)[C@@H](OC(=O)N2CCN(C)CC2)/C=C/[C@@H]1C | 2.84 nM | > 1000 nM | -90.2% | 4.86 nM |  |  |
| C/C(=C\C=C\C1(COC(=O)N2CCCC2)CC1)[C@H]1OC(=O)C[C@H](O)CC[C@@](C)(O)[C@@H](OC(=O)N2CCN(C3CCCCCC3)CC2)/C=C/[C@@H]1C | 138 nM | > 1000 nM | -24.7% | 302 nM |  |  |
| C/C(=C\C=C\C(C)(C)COC(=O)N1CCCC1)[C@H]1OC(=O)C[C@H](OC(=O)N2CCCC2)CC[C@@](C)(O)[C@@H](OC(=O)N2CCN(C3CCCCCC3)CC2)/C=C/[C@@H]1C | 41.4 nM | 1880 nM | -92.4% | 86.3 nM |  |  |
| C/C(=C\C=C\C(C)c1ccnc(N(C)C)n1)[C@H]1OC(=O)CCCCC[C@@H](OC(=O)N2CCN(C3CCCCCC3)CC2)/C=C/[C@@H]1C (stereo partly shown) | 4280 nM | > 10000 nM | 52% | > 10000 nM |  |  |
| C/C(=C\C=C\C(C)c1ccnc(N2CC[C@@H](O)C2)n1)[C@H]1OC(=O)CCCCC[C@@H](OC(=O)N2CCN(C3CCCCCC3)CC2)/C=C/[C@@H]1C (stereo partly shown) | 455 nM | > 10000 nM | -94.8% | 475 nM |  |  |
| C/C(=C\C=C\[C@@H](C)COC(=O)N1CCC[C@H]1CO)[C@H]1OC(=O)C[C@H](O)CC[C@H](C)[C@@H](OC(=O)N2CCN(C)CC2)/C=C/[C@@H]1C | 2.66 nM | > 1000 nM | -79% | 4.36 nM |  |  |

| SMILES | GI50 [1, 4] | GI50 [2, 5] | Emax [3] | GI50 [3] | GI50 ([1]; WiDr, read-out: WiDr GI50 (nM)) | GI50 ([2]; read-out: WiDr-R GI50 (nM)) |
| --- | --- | --- | --- | --- | --- | --- |
| CC(=O)O[C@H]1/C=C/[C@H](C)[C@@H](/C(C)=C/C=C/C(C)(O)CCc2ccccc2)OC(=O)C[C@H](O)CC[C@@]1(C)O (stereo partly shown) | 194 nM | > 10000 nM | -41.5% | 354 nM |  |  |
| CC(=O)O[C@H]1/C=C/[C@H](C)[C@@H](/C(C)=C/C=C/C(C)c2cccc([C@H](C)CO)n2)OC(=O)C[C@H](O)CC[C@@]1(C)O (stereo partly shown) | 343 nM | > 10000 nM | -28.2% | 408 nM |  |  |
| C/C(=C\C=C\[C@@H](C)CN(C)C(=O)N1CCCC1)[C@H]1OC(=O)C[C@H](O)CC[C@@](C)(O)[C@@H](OC(=O)N2CCN(C3CCCCCC3)CC2)/C=C/[C@@H]1C | 145 nM | > 1000 nM | -94.5% | 23.5 nM |  |  |
| CC(=O)O[C@H]1/C=C/[C@H](C)[C@@H](/C(C)=C/C=C/C(C)CCc2ccccn2)OC(=O)C[C@H](O)CC[C@@]1(C)O (stereo partly shown) | 593 nM | > 10000 nM | 0.954% | 972 nM |  |  |
| C/C(=C\C=C\[C@@H](C)COC(=O)N1CCC[C@H]1C)[C@H]1OC(=O)CCCCC[C@@H](OC(=O)N2CCN(C)CC2)/C=C/[C@@H]1C | 3.44 nM | 681 nM | -65.3% | 7.73 nM |  |  |
| C/C(=C\C=C\[C@@H](C)COC(=O)N1CCC(=O)C1)[C@H]1OC(=O)C[C@H](O)CC[C@@](C)(O)[C@@H](OC(=O)N2CCN(C3CCCCCC3)CC2)/C=C/[C@@H]1C | 4.77 nM | 449 nM | -93.6% | 2.85 nM |  |  |
| CC(=O)O[C@H]1/C=C/[C@H](C)[C@@H](/C(C)=C/C=C/C(C)c2cccc(OCC(C)C)n2)OC(=O)C[C@H](O)CC[C@@]1(C)O (stereo partly shown) | 440 nM | > 10000 nM | -27.1% | 842 nM |  |  |
| CC(=O)O[C@H]1/C=C/[C@H](C)[C@@H](/C(C)=C/C=C/C(C)(O)c2cccs2)OC(=O)C[C@H](O)CC[C@@]1(C)O (stereo partly shown) | 473 nM | > 10000 nM | 32.8% | 3790 nM |  |  |
| C/C(=C\C=C\[C@@H](C)COC(=O)N1CC[C@@H](O)C1)[C@H]1OC(=O)CCCC[C@@](C)(O)[C@@H](OC(=O)N2CCN(C)CC2)/C=C/[C@@H]1C | 11.2 nM | > 1000 nM | -94.6% | 4.44 nM |  |  |
| C/C(=C\C=C\[C@@H](C)COC(=O)N1CC[C@H](C)C1)[C@H]1OC(=O)C[C@H](O)CC[C@@](C)(O)[C@@H](OC(=O)N2CCN(C3CCCCCC3)CC2)/C=C/[C@@H]1C | 6.2 nM | > 1000 nM | -93.6% | 2.59 nM |  |  |
| C/C(=C\C=C\[C@@H](C)COC(=O)N1CCCC1)[C@H]1OC(=O)C[C@H](O)CC[C@H](C)[C@@H](OC(=O)N2CCN(C3CCCCCC3)CC2)/C=C/[C@@H]1C | 8.39 nM | > 1000 nM | -90.9% | 10.8 nM |  |  |
| C/C(=C\C=C\[C@@H](C)CNC(=O)C1CCCC1)[C@H]1OC(=O)C[C@H](O)CC[C@@](C)(O)[C@@H](OC(=O)N2CCN(C)CC2)/C=C/[C@@H]1C | 263 nM | > 1000 nM | -57% | 137 nM |  |  |
| C/C(=C\C=C\CCOC(=O)N1CCCC1)[C@H]1OC(=O)C[C@H](O)CC[C@@](C)(O)[C@@H](OC(=O)N2CCN(C)CC2)/C=C/[C@@H]1C | 63.6 nM | > 5500 nM |  | 58.4 nM |  |  |
| C/C(=C\C=C\[C@@H](C)COC(=O)N1CC[C@@H](O)C1)[C@H]1OC(=O)C[C@H](O)CC[C@@](C)(O)[C@@H](OC(=O)N2CCN(C)CC2)/C=C/[C@@H]1C | 89.9 nM | > 1000 nM | -94.8% | 88.1 nM |  |  |
| CC(=O)O[C@H]1/C=C/[C@H](C)[C@@H](/C(C)=C/C=C/C(C)c2ccccc2)OC(=O)C[C@H](O)CC[C@@]1(C)O (stereo partly shown) | 382 nM | > 10000 nM | 12.3% | 932 nM |  |  |
| C/C(=C\C=C\[C@@H](C)COC(=O)N1CCCC1C(C)O)[C@H]1OC(=O)C[C@H](O)CC[C@@](C)(O)[C@@H](OC(=O)N2CCN(C)CC2)/C=C/[C@@H]1C (stereo partly shown) | 14.7 nM | > 1000 nM | -85.4% | 10.1 nM |  |  |
